This note sets out measurements from PubChem BioAssay (NCI).

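Protocol summary: plate cells (96-well), add compound at 5 concentrations, incubate 48 h, interpolate endpoints linearly. TGI: concentration producing complete growth inhibition.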

Some test systems named below: A498 renal; ACHN renal; MDA-MB-435; MDA-N; OVCAR-8 ovarian; SF-268 CNS; SNB-19 CNS; SR leukemia; U251 CNS.
What all share (experiment): inhibition of tumour cell growth, NCI panel, 48 h

Turning to `Brc1ccc(/C(N=N/C(=N\Sc2ccccc2)c2ccc(Br)cc2)=N/Sc2ccccc2)cc1`, the TGI in the experiment on A498 renal, in the experiment on ACHN renal, with MDA-MB-435, in the experiment on MDA-N, with OVCAR-8 ovarian and in the experiment with SF-268 CNS was greater than 100 µM throughout. In addition, the TGI in the experiment with SNB-19 CNS, in the experiment on SR leukemia and in the experiment on U251 CNS was greater than 100 µM in each case.
For the molecule `O=C(O[C@@H](/C=C/c1ccccc1)P1(=O)N(Cc2ccccc2)[C@@H]2CCCC[C@H]2N1Cc1ccccc1)c1ccccc1`, the TGI with A498 renal is greater than 100 µM; with ACHN renal, greater than 100 µM; with MDA-MB-435, 68.7 µM; in the experiment on MDA-N, greater than 100 µM; in the experiment with OVCAR-8 ovarian, greater than 100 µM; in the experiment on SF-268 CNS it was greater than 100 µM. For the same molecule, the TGI with SNB-19 CNS, in the experiment with SR leukemia and with U251 CNS was greater than 100 µM in each case.
As to `Cn1c2ccccc2c2c3c(=O)[nH][nH]c(=O)c3c3c4ccccc4n(C)c3c21`, the TGI in the experiment on A498 renal, with ACHN renal, in the experiment with MDA-MB-435, in the experiment with MDA-N, in the experiment on OVCAR-8 ovarian and in the experiment with SF-268 CNS was greater than 100 µM in each case. For the same molecule, the TGI was greater than 100 µM in the experiment on SNB-19 CNS, 0.252 µM in the experiment with SR leukemia and greater than 100 µM with U251 CNS.
With `COc1ccc2c(c1)-c1nc(=S)n(CCN(C)C)c3ccc([N+](=O)[O-])c(c13)N2`, the TGI with A498 renal was 24.5 µM; in the experiment with ACHN renal, 4.97 µM; with MDA-MB-435, 7.82 µM; in the experiment with MDA-N, 2.19 µM; in the experiment on OVCAR-8 ovarian it was 2.2 µM; in the experiment on SF-268 CNS, 2.16 µM. The TGI with SNB-19 CNS came out at 3.87 µM; in the experiment with SR leukemia it was 2.07 µM; in the experiment on U251 CNS, 2.44 µM.
Regarding `O=C1CCC(CCc2nc3ccccc3[nH]2)(c2ccccc2)C(=O)N1` (stereo unspecified), the TGI with A498 renal, with ACHN renal, in the experiment on MDA-MB-435, with MDA-N, with OVCAR-8 ovarian and in the experiment on SF-268 CNS was greater than 100 µM in each case. The TGI in the experiment with SNB-19 CNS, in the experiment on SR leukemia and in the experiment with U251 CNS was greater than 100 µM each time.
As to `CC(C)(C)C#CI1OC(=O)c2ccccc21`, the TGI in the experiment with A498 renal amounted to 24 µM; in the experiment on ACHN renal, 8.42 µM; in the experiment on MDA-MB-435, 18.4 µM; in the experiment with MDA-N, 23.4 µM; with OVCAR-8 ovarian it was 23.3 µM; in the experiment with SF-268 CNS it was 14.3 µM. The values for the TGI with SNB-19 CNS, in the experiment on SR leukemia and in the experiment on U251 CNS were 22.9 µM, 3.74 µM and 11.2 µM, respectively.
As for `Brc1ccc2[nH]cc(-c3csc(-c4c[nH]c5ccc(Br)cc45)n3)c2c1`, the TGI was 6.03 µM in the experiment on A498 renal; 4.8 µM in the experiment on ACHN renal; 5.79 µM in the experiment with MDA-MB-435; 5.95 µM in the experiment with MDA-N; 7.22 µM in the experiment with OVCAR-8 ovarian; 6.12 µM in the experiment with SF-268 CNS. For the same molecule, the TGI amounted to 7.61 µM in the experiment on SNB-19 CNS, 2.99 µM in the experiment on SR leukemia and 3.61 µM with U251 CNS.
For the molecule `COC(=O)Cc1c2n(c3ccccc13)C(=O)N1c3ccccc3C(CC(=O)OC)C21` (stereo unspecified), the TGI in the experiment with A498 renal, in the experiment on ACHN renal, in the experiment on MDA-MB-435, with MDA-N, in the experiment with OVCAR-8 ovarian and in the experiment on SF-268 CNS was greater than 100 µM throughout. The TGI is 49.8 µM with SNB-19 CNS, greater than 100 µM in the experiment on SR leukemia and greater than 100 µM in the experiment with U251 CNS.
`COC(=O)c1ccc2cc(O)ccc2c1`: the TGI with A498 renal, in the experiment with ACHN renal, in the experiment with MDA-MB-435, with MDA-N, in the experiment with OVCAR-8 ovarian and with SF-268 CNS was greater than 100 µM each time. Further, the TGI with SNB-19 CNS is greater than 100 µM; in the experiment on SR leukemia it was 81.9 µM; in the experiment with U251 CNS, greater than 100 µM.
For `OC(CCN1CCN(CCOC(c2ccc(F)cc2)c2ccc(F)cc2)CC1)c1ccc(Br)cc1` (stereo unspecified), the TGI in the experiment on A498 renal turned out to be 8.04 µM; with ACHN renal, 17 µM; with MDA-MB-435, 6.82 µM; in the experiment on MDA-N it was 6.93 µM; with OVCAR-8 ovarian it was 4.1 µM; in the experiment on SF-268 CNS, 17.6 µM. The TGI in the experiment on SNB-19 CNS is 21.2 µM; in the experiment on SR leukemia it was 4.13 µM; in the experiment with U251 CNS it was 16.4 µM.
In the case of `O=C(O)Cn1c[n+](NC(=O)Cc2ccccc2)cn1`, the TGI with A498 renal, in the experiment with ACHN renal, in the experiment with MDA-MB-435, with MDA-N, in the experiment on OVCAR-8 ovarian and in the experiment on SF-268 CNS was greater than 10 µM throughout. The TGI in the experiment on SNB-19 CNS, in the experiment with SR leukemia and with U251 CNS was greater than 10 µM each time.
Regarding `CO[C@H](C)[C@](O)(C(=O)OCC1=CCN2CC[C@@H](O)[C@H]12)C(C)C`, the TGI in the experiment with A498 renal, with ACHN renal, with MDA-MB-435, in the experiment on MDA-N, with OVCAR-8 ovarian and in the experiment with SF-268 CNS was greater than 100 µM each time. The TGI in the experiment on SNB-19 CNS, with SR leukemia and in the experiment on U251 CNS was greater than 100 µM throughout.
On to `C[N+]1(CCCCN2c3ccccc3Sc3cc(N=[N+]=[N-])ccc32)CCN(C(=O)CCNC(=O)Cc2ccc(C(=O)c3ccccc3)cc2)CC1`, for which the TGI with A498 renal is 56.3 µM; in the experiment on ACHN renal it was 37.2 µM; with MDA-MB-435 it was greater than 67.7 µM; with MDA-N it was greater than 71.9 µM; in the experiment with OVCAR-8 ovarian, greater than 100 µM; with SF-268 CNS, 71.5 µM. Also, the results for the TGI in the experiment on SNB-19 CNS, with SR leukemia and with U251 CNS were 66.7 µM, 65.5 µM and greater than 87.3 µM, respectively.
Turning to `O=C1c2c(Br)sc(Br)c2[C@H]2OC(=S)N[C@@H]12`, the TGI amounted to 32.5 µM with A498 renal; 11.1 µM in the experiment on ACHN renal; 8.65 µM with MDA-MB-435; 16.9 µM with MDA-N; 12 µM in the experiment on OVCAR-8 ovarian; 12 µM in the experiment with SF-268 CNS. In addition, the values for the TGI in the experiment with SNB-19 CNS, in the experiment with SR leukemia and with U251 CNS were 30 µM, 5.19 µM and 7.08 µM, respectively.
